Here are results for three compounds from ChEMBL document CHEMBL3091451, “Function-regulating pharmacophores in a sulfonamide class of glucocorticoid receptor agonists” (Bioorg Med Chem Lett, 2013).

Data set [1] has as its target Cytochrome P450 3A4 (Homo sapiens, UniProt P08684). Nature of the data set: Inhibition of CYP3A4 (unknown origin) using 7-benzyloxy-4-trifluoromethylcoumarin as substrate. The format is ADME.
Data set [2] is filed under the species Mus musculus. Nature of the data set: Antiinflammatory activity in mouse assessed as inhibition of LPS-stimulated TNFalpha production. The format is functional.
The species named for data set [3] is Homo sapiens. Nature of the data set: Selectivity ratio of IC50 for mineralocorticoid receptor (unknown origin) to IC50 for glucocorticoid receptor (unknown origin).
Data set [4] addresses T1, Glucocorticoid receptor (Homo sapiens, UniProt P04150).
T1 sequence (P04150 whole entry): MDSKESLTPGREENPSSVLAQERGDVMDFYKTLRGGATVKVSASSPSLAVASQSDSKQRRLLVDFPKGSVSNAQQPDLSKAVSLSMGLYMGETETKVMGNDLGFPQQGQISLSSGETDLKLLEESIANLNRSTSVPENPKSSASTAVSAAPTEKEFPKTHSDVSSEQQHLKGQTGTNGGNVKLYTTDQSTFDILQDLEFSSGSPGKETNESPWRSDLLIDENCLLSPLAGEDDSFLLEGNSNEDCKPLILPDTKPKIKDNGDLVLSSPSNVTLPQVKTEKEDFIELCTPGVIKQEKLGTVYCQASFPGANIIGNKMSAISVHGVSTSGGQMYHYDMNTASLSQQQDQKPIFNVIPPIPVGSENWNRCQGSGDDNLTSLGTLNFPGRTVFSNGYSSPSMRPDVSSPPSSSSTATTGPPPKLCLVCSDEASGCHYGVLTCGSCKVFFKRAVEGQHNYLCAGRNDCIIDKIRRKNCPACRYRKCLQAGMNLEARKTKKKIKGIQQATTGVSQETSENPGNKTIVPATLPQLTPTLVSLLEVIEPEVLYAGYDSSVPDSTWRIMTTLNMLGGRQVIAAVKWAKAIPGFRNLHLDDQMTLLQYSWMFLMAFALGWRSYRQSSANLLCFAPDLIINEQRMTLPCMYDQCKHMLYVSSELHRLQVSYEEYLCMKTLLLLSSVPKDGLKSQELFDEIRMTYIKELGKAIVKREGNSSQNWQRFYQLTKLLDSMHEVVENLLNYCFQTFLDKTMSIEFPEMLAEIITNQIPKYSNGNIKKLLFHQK
Nature of the data set: Agonist activity at glucocorticoid receptor in HFF assessed as inhibition of IL-1-induced IL-6 production after 24 hrs.

Data set [5] is filed under the species Mus musculus. The data set is described as follows: Antiarthritic activity in collagen antibody-induced arthritis mouse model. The data set is classed as functional.
Data set [6] can be described thus: Half life in human liver microsomes. The data set is classed as ADME.
Data set [7] concerns the target T1, Glucocorticoid receptor. Nature of the data set: Displacement of TAMRA-labeled dexamethasone from glucocorticoid receptor (unknown origin) by fluorescence polarization competitive binding assay. (Polarisation of emitted light reports the rotation of a fluorescent probe.)
Data set [8] has as its target T2, Progesterone receptor (Homo sapiens, UniProt P06401).
T2 sequence (P06401 whole entry): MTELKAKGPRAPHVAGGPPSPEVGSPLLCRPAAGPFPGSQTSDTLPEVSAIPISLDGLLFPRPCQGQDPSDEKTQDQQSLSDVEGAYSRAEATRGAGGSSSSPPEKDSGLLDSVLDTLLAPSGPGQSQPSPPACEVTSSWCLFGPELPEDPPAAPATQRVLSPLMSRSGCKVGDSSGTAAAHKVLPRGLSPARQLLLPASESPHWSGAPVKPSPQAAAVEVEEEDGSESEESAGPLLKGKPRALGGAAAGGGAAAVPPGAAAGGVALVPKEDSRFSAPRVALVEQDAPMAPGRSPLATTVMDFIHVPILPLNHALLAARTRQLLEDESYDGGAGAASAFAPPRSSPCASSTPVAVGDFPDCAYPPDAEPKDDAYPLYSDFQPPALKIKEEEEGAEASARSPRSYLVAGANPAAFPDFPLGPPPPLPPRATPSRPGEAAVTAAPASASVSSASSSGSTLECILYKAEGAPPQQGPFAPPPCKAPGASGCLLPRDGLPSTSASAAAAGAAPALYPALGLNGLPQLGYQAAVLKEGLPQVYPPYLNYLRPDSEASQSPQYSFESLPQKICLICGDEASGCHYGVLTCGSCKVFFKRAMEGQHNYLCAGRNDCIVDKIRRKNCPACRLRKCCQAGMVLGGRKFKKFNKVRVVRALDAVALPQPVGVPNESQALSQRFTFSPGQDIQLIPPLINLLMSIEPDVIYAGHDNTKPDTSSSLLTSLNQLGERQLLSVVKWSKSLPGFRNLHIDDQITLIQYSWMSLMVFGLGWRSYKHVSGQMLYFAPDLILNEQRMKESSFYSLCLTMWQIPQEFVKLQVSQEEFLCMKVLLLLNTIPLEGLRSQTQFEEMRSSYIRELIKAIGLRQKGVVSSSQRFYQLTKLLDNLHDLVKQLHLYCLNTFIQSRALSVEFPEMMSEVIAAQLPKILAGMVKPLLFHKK
The data set is described as follows: Displacement of TAMRA-labeled mifepristone from progesterone receptor (unknown origin) by fluorescence polarization competitive binding assay.

Data set [9] addresses T3, Mineralocorticoid receptor (Homo sapiens, UniProt P08235).
T3 sequence (P08235 whole entry): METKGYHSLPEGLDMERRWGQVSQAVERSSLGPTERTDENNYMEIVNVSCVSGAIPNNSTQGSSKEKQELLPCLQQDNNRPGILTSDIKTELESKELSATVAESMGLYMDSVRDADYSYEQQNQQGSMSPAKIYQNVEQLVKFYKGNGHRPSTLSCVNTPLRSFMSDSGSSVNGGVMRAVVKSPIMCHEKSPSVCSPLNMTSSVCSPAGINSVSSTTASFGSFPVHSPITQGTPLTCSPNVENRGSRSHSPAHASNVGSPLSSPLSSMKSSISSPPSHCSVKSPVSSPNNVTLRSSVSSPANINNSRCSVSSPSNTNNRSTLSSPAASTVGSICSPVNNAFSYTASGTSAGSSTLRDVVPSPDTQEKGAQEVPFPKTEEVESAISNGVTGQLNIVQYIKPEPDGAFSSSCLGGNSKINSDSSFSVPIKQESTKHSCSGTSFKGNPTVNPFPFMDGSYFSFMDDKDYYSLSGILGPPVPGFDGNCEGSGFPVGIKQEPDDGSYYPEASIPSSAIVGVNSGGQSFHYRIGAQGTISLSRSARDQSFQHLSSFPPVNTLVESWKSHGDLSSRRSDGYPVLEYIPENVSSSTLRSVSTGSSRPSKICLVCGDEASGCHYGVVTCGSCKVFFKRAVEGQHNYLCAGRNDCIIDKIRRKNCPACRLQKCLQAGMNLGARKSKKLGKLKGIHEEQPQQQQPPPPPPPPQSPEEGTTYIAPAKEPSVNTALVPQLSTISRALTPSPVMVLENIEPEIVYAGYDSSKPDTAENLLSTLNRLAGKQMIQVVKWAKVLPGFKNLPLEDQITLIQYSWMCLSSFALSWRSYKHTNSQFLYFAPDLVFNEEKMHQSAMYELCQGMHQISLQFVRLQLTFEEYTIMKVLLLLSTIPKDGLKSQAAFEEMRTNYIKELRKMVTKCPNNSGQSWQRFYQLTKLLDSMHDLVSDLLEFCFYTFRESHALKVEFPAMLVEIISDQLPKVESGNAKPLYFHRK
The data set is described as follows: Binding affinity to mineralocorticoid receptor (unknown origin) by fluorescence polarization competitive binding assay.

Molecules are shown by their SMILES.

Cytochrome P450 3A4, sequence (P08684 whole entry): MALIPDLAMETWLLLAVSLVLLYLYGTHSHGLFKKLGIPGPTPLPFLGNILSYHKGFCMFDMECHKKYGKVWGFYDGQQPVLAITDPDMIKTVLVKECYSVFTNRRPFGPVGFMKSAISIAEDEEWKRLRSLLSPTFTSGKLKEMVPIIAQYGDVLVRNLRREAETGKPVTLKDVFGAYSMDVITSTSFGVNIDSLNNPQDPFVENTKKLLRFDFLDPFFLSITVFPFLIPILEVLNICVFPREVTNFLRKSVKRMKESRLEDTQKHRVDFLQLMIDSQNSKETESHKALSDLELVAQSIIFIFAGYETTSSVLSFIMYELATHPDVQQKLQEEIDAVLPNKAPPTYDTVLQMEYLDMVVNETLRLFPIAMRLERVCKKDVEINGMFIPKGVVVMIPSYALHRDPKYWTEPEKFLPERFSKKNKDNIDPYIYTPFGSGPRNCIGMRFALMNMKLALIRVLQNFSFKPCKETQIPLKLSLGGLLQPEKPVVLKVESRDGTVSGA

In general, IC50 refers to the concentration that inhibits the measured activity by half. The ED50 is the dose at which the effect has come halfway, by size or by number of responders. What is called half-life is the time in which the quantity being followed falls by half. Higher therefore signals slow decline. On to `CC[C@@H](Cn1cc(C#N)c2ccccc21)NS(=O)(=O)c1c(N)cc(Cl)cc1Cl`, for which the IC50 is 5800 nM in [1]; 7 nM in data set [4]; 1 nM in data set [7]; 1.5 µM in [8]; 330 nM in data set [9]. In addition, the ED50 in data set [2] came out at 10 mg/kg; in data set [5], 100 mg/kg. In addition, the Ratio IC50 in [3] is 330. The compound further registered a half-life in data set [6] of 3 min.
For the compound `CC[C@@H](Cn1cc(C)c2ccccc21)NS(=O)(=O)c1c(N)cc(Cl)cc1Cl`, the IC50 was determined as 940 nM in data set [1]; 10 nM in data set [4]; 2 nM in data set [7]; 5 µM in data set [8]; 260 nM in [9]. This compound also yielded a half-life in [6] of 2 min.
On to `CC[C@@H](Cn1ccc2ccccc21)NS(=O)(=O)c1c(N)cc(Cl)cc1Cl`, for which the IC50 is 570 nM in data set [1]; more than 2000 nM in data set [4]; 2 nM in [7]; more than 10 µM in [8]; 510 nM in [9]. Also, the half-life in data set [6] worked out at 3 min.
